Reference: publication PMC10341893, “Motifs in Natural Products as Useful Scaffolds to Obtain Novel Benzo[d]imidazole-Based Cannabinoid Type 2 (CB2) Receptor Agonists” (International Journal of Molecular Sciences, 2023)
Read-outs that look alike come from different tables or passages of the source.

Columns and labels:
MCF-7 cells = test: Neutral red uptake assay, MCF-7; assay type: cell-based; conditions: Homo sapiens, MCF7, 72 h incubation, triplicate, read-out: IC50 Viability
Method: (§1) Compound 6 was tested through a neutral red uptake assay, and cell viability was measured. Neutral red consists of a cationic dye that accumulates in lysosomes. Uptake of neutral red depends on a viable cell’s capacity to maintain acidic pH in the interior of lysosomes.
(§2) MCF-7 and HEK-293 cell lines were maintained at 37 °C in a humidified atmosphere containing 5% CO2. MCF-7 was grown in Roswell Park Memorial Institute (RPMI) 1640 and HEK-293 was grown in Dulbecco’s modified Eagle medium and Ham’s F-12 medium (DMEM/F12). All media was supplemented with 10% fetal bovine serum, penicillin (100 U/mL), streptomycin ([…]), and non-essential amino acids MEM 1×.
(§3) Cells were seeded in 100 μL of media at a density of 10^4 cells/well in 96-well microtiter plates. Solutions of compounds were previously prepared in DMSO, and 1 μL of the corresponding solution was added to each well. The final volume of each well was adjusted to 200 μL. After 72 h of incubation, culture media were removed, and 100 μL of 10 μg/mL neutral red solution prepared in culture media was added to each well and incubated for 2 h at 37 °C in a humidified atmosphere containing 5% CO2. […] The plate was placed for 15 min in a shaker, and fluorescence was measured using Cytation 5 apparatus (Biotek, Winooski, VT, USA) at 530/645 nm excitation/emission wavelengths.

HEK-293 cells = test: Neutral red uptake assay, HEK-293; assay type: cell-based; conditions: Homo sapiens, HEK293
Method: as §1, §2, §3

hCB2 receptor [1] = biological target: T1, hCB2 receptor (Homo sapiens, UniProt P34972); test: CB2 receptor binding assay ([3H]-CP-55,940 displacement, HEK cell membranes); design: expressed in transfected cells; host or cells: HEK cells; conditions: [3H]-CP-55,940 displacement; means ± SD of 3 independent experiments in duplicate; read-out: Ki CB2
Method: (§4) To assess the compound selectivity between CB1 and CB2 receptors, binding constants were determined through a radioligand displacement assay by testing concentration–response curves for compounds 5, 6, 16, 19, and 22. As shown in Figure 4 and summarized in Table 4, three of the tested compounds (5, 19, and 22) presented moderate binding affinity in a low micromolar range to both CB1 and CB2 receptors.
(§5) CB1 and CB2 receptor binding assays were performed exactly as previously described. […] Displacement curves were performed by incubating [^3H]-CP-55 940 (90 min, 30 °C) with increasing concentrations of compounds (10 nM−10 μM). Ki values were calculated by applying the Cheng−Prusoff equation to the IC50 values (obtained by GraphPad, Prism Software 9.5) for the displacement of the bound radioligand by compounds.

human recombinant CB1R = biological target: T2, human recombinant CB1R (Homo sapiens, UniProt P21554); test: CB1 receptor binding assay ([3H]-CP-55,940 displacement, HEK cell membranes); conditions: [3H]-CP-55,940 displacement; means ± SD of 3 independent experiments in duplicate; read-out: Ki CB1
T2 construct: expressed in transfected cells; host or cells: HEK cells
Method: as §4, §5

hCB2 receptor [2] = biological target: T1, hCB2 receptor; test: cAMP accumulation assay (forskolin-stimulated, CHO cells expressing hCB2); assay type: cell-based
Method: Compounds were further characterized through in vitro functional assays by measuring the variation in forskolin-induced cAMP accumulation (Eurofins Cerep services). The tested compounds diminished the accumulation of cyclic AMP, indicating activity as agonists (Figure 3).
In vitro pharmacology assay for human CB2 agonist effect in CHO cells was performed by Eurofins Cerep (Celle-Lévescault, France). Five compounds were tested at several concentrations for EC50 determination. […] CHO cells stably expressing hCB2 receptor were used to determine agonist effect of compounds, based on the measurement of cAMP level. Assay protocol is adapted from Felder et al..

hCB2 receptor [3] = biological target: T1, hCB2 receptor; test: Single-dose radioligand displacement assay ([3H]WIN55212-2); assay type: binding; design: host or cells: CHO cells; conditions: membranes from recombinant CHO cells expressing human CB2, duplicate
Method: To assess ligand binding to CB2 receptors, radioligand displacement assay at a single dose (10 μM) was performed in membranes obtained from recombinant CHO cells expressing human CB2 receptors (Eurofins Cerep SA, France). Out of 26 compounds, more than 50% of the molecules presented >50% displacement, while 20% of the compounds (5, 6, 16, 19, 22) presented >80% displacement of radioligand binding at a 10 μM dose. Compounds 5, 6, 16, 19, and 22 were further tested for CB2 receptor activation (agonist activity, see below) and CB2/CB1 selectivity.
All membrane preparations for these studies were generated at Cerep Inc. according to standard protocols. Duplicate determinations were performed for each test compound. Compounds were dissolved in DMSO to generate a stock solution. Radioligand binding methods were adapted from Munro et al..

T1 sequence (P34972 whole entry): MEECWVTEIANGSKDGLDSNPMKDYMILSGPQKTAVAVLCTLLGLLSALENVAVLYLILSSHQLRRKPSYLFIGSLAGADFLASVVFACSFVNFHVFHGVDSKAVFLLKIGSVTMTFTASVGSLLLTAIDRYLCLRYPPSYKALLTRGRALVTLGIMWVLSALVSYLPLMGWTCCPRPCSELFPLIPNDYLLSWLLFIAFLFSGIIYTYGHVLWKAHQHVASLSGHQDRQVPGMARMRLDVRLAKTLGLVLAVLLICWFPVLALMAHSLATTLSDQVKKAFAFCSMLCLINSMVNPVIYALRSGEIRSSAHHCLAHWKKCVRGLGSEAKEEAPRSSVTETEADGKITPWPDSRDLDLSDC
T2 sequence (P21554 whole entry): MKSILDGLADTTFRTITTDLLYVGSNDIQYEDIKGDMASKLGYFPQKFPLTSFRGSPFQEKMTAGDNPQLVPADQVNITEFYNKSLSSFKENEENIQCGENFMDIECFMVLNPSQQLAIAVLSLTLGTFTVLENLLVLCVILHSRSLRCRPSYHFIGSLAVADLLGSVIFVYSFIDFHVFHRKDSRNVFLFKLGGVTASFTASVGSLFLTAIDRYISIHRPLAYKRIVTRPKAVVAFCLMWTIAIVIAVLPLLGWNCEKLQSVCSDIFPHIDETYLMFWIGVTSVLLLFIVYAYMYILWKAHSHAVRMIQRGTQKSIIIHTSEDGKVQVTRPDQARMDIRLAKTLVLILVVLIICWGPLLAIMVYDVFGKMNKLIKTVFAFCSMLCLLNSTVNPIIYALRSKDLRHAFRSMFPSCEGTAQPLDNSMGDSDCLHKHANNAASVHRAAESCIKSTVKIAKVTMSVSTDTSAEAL

IC50 (MCF-7 cells): 38 µM
Ki (hCB2 receptor [1]): 0.44 ± 0.1 µM
Ki (human recombinant CB1R): > 10 µM
EC50 (hCB2 receptor [2]; recombinant CHO cells expressing hCB2, duplicate, read-out: EC50, inhibition of forskolin-stimulated cAMP accumulation): 0.00336 µM
agonist activity at CB2 (cAMP accumulation) (hCB2 receptor [2]; recombinant cells expressing CB2 receptors): agonist activity was confirmed
Inhibition (%) of [3H]WIN55212-2 specific binding (hCB2 receptor [3]; 10 µM single dose): 89%
inhibition at 10 µM (hCB2 receptor [3]; read-out: Inhibition (%) of [3H]WIN55212-2 specific binding, 10 µM single dose): > 80%
Compound: CCn1c(OC2CC(C)CCC2C(C)C)nc2ccccc21 (stereo not drawn) [Compound 6, 1-ethyl-2-((2-isopropyl-5-methylcyclohexyl)oxy)-1H-benzo[d]imidazole]
IC50 (HEK-293 cells; HEK-293, 72 h incubation, triplicate, read-out: IC50 Viability): 30 µM
IC50 (HEK-293 cells; range over HEK-293 and MCF-7 cells, read-out: IC50 of toxicity): 30 to 38 µM
